Measured values published in US10745396B2, “Pesticidally active polycyclic derivatives with sulfur containing substituents” (Syngenta Participations AG, priority 2015, dated 2020).

How the values were obtained:
Assay type in all cases: in vivo
[1] = system: Bemisia tabaci (Cotton White Fly); experiment: Bemisia tabaci feeding/contact activity, cotton leaf discs; settings: foliar, 144 h, application rate of 200 ppm, 6 days after incubation, adult white flies
Procedure: Example B1: Bemisia tabaci (Cotton White Fly): Feeding/Contact Activity
Cotton leaf discs were placed on agar in 24-well microtiter plates and sprayed with aqueous test solutions prepared from 10′000 ppm DMSO stock solutions. After drying the leaf discs were infested with adult white flies. The samples were checked for mortality 6 days after incubation.

[2] = system: Thrips tabaci (Onion Thrips); experiment: Thrips tabaci feeding/contact activity, sunflower leaf discs; settings: foliar, 144 h, application rate of 200 ppm, 6 days after infestation
Procedure: Example B11: Thrips tabaci (Onion Thrips) Feeding/Contact Activity
Sunflower leaf discs were placed on agar in 24-well microtiter plates and sprayed with aqueous test solutions prepared from 10′000 ppm DMSO stock solutions. After drying the leaf discs were infested with a thrips population of mixed ages. The samples were assessed for mortality 6 days after infestation.

[3] = system: Plutella xylostella (Diamond Back Moth); experiment: Plutella xylostella, artificial diet, L2 larvae; settings: 120 h, application rate of 200 ppm, 5 days after infestation, read-out: effect in at least one of the two categories (mortality or growth inhibition)
Procedure: Example B7: Plutella xylostella (Diamond Back Moth)
24-well microtiter plates with artificial diet were treated with aqueous test solutions prepared from 10′000 ppm DMSO stock solutions by pipetting. After drying, the plates were infested with L2 larvae (10 to 15 per well). The samples were assessed for mortality and growth inhibition in comparison to untreated samples 5 days after infestation.

[4] = system: Spodoptera littoralis (Egyptian Cotton Leaf Worm); experiment: Spodoptera littoralis, cotton leaf discs, L1 larvae; settings: foliar, 72 h, application rate of 200 ppm, 3 days after infestation
Procedure: Example B8: Spodoptera littoralis (Egyptian Cotton Leaf Worm)
Cotton leaf discs were placed onto agar in 24-well microtiter plates and sprayed with aqueous test solutions prepared from 10′000 ppm DMSO stock solutions. After drying the leaf discs were infested with five L1 larvae. The samples were assessed for mortality, anti-feeding effect, and growth inhibition in comparison to untreated samples 3 days after infestation. Control of Spodoptera littoralis by a test sample is given when at least one of the categories mortality, anti-feedant effect, and growth inhibition is higher than the untreated sample.

[5] = system: Euschistus heros (Neotropical Brown Stink Bug); experiment: Euschistus heros, soybean leaves on agar, N2 nymphs; settings: 120 h, application rate of 200 ppm, 5 days after infestation, read-out: effect in at least one of the two categories (mortality or growth inhibition)
Procedure: Example B3: Euschistus heros (Neotropical Brown Stink Bug)
Soybean leaves on agar in 24-well microtiter plates were sprayed with aqueous test solutions prepared from 10′000 ppm DMSO stock solutions. After drying the leaves were infested with N2 nymphs. The samples were assessed for mortality and growth inhibition in comparison to untreated samples 5 days after infestation.

[6] = system: Diabrotica balteata (Corn Root Worm); experiment: Diabrotica balteata, maize sprouts on agar, L2 larvae; settings: 96 h, application rate of 200 ppm, 4 days after infestation, read-out: effect in at least one of the two categories (mortality or growth inhibition)
Procedure: Example B2: Diabrotica balteata (Corn Root Worm)
Maize sprouts placed onto an agar layer in 24-well microtiter plates were treated with aqueous test solutions prepared from 10′000 ppm DMSO stock solutions by spraying. After drying, the plates were infested with L2 larvae (6 to 10 per well). The samples were assessed for mortality and growth inhibition in comparison to untreated samples 4 days after infestation.

[7] = system: Myzus persicae (Green Peach Aphid); experiment: Myzus persicae systemic activity, pea seedling roots in test solution; settings: 144 h, test rate of 24 ppm, 6 days after placing seedlings into test solutions
Procedure: Example B6: Myzus persicae (Green Peach Aphid): Systemic Activity
Roots of pea seedlings infested with an aphid population of mixed ages were placed directly into aqueous test solutions prepared from 10′000 DMSO stock solutions. The samples were assessed for mortality 6 days after placing seedlings into test solutions.

[8] = system: Spodoptera littoralis (Egyptian Cotton Leaf Worm); experiment: Spodoptera littoralis, uptake by lettuce roots from agar, eggs; settings: 144 h, test rate of 12.5 ppm, 6 days after infestation, read-out: effect in at least one of the three categories (mortality, anti-feeding, or growth inhibition)
Source text: Example B9: Spodoptera littoralis (Egyptian Cotton Leaf Worm)
Test compounds were applied by pipette from 10′000 ppm DMSO stock solutions into 24-well plates and mixed with agar. Lettuce seeds were placed onto the agar and the multi well plate was closed by another plate which contained also agar. After 7 days the compound was absorbed by the roots and the lettuce grew into the lid plate. The lettuce leaves were then cut off into the lid plate. Spodoptera eggs were pipetted through a plastic stencil onto a humid gel blotting paper and the lid plate was closed with it. The samples were assessed for mortality, anti-feedant effect and growth inhibition in comparison to untreated samples 6 days after infestation.

[9] = system: Myzus persicae (Green Peach Aphid); experiment: Myzus persicae feeding/contact activity, sunflower leaf discs; settings: foliar, 144 h, application rate of 200 ppm, 6 days after infestation
Procedure: Example B5: Myzus persicae (Green Peach Aphid): Feeding/Contact Activity
Sunflower leaf discs were placed onto agar in a 24-well microtiter plate and sprayed with aqueous test solutions prepared from 10′000 ppm DMSO stock solutions. After drying, the leaf discs were infested with an aphid population of mixed ages. The samples were assessed for mortality 6 days after infestation.

[10] = system: Tetranychus urticae (Two-Spotted Spider Mite); experiment: Tetranychus urticae feeding/contact activity, bean leaf discs; settings: foliar, 192 h
Procedure: Example B10: Tetranychus urticae (Two-Spotted Spider Mite): Feeding/Contact Activity
Bean leaf discs on agar in 24-well microtiter plates were sprayed with aqueous test solutions prepared from 10′000 ppm DMSO stock solutions. After drying the leaf discs were infested with a mite population of mixed ages. The samples were assessed for mortality on mixed population (mobile stages) 8 days after infestation.

CCn1c(C(F)(F)F)cc2nc(-c3nc(-n4cncn4)ccc3S(=O)(=O)CC)n(C)c2c1=O [Compound P5]
≥ 80%: mortality at 200 ppm [1] | mortality at 200 ppm [2] | percent effect (mortality or growth inhibition) at 200 ppm [3] | percent control (mortality, anti-feedant effect or growth inhibition) at 200 ppm [4] | percent effect (mortality or growth inhibition) at 200 ppm [5] | percent effect (mortality or growth inhibition) at 200 ppm [6] | mortality at 24 ppm [7] | percent effect (mortality, anti-feeding or growth inhibition) at 12.5 ppm [8] | mortality at 200 ppm [9]

CCS(=O)(=O)c1ccc(-n2cncn2)nc1-c1nc2cc(C(F)(F)F)n(C3CC3)c(=O)c2n1C [Compound P4, 5-cyclopropyl-2-[3-ethylsulfonyl-6-(1,2,4-triazol-1-yl)-2-pyridyl]-3-methyl-6-(trifluoromethyl)imidazo[4,5-c]pyridin-4-one]
≥ 80%: mortality at 200 ppm [1] | mortality at 200 ppm [2] | percent effect (mortality or growth inhibition) at 200 ppm [3] | percent control (mortality, anti-feedant effect or growth inhibition) at 200 ppm [4] | percent effect (mortality or growth inhibition) at 200 ppm [5] | mortality at 200 ppm [10] | percent effect (mortality or growth inhibition) at 200 ppm [6] | mortality at 24 ppm [7] | percent effect (mortality, anti-feeding or growth inhibition) at 12.5 ppm [8] | mortality at 200 ppm [9]
